pIC50, pKi: −log10 of the molar value.
Key:
[1] = AUC in rat at 3 mg/kg, po; format: ADME, organism-based; parameters: dose 3 mg/kg, route oral; conditions: plasma
D(3) dopamine receptor = D(3) dopamine receptor (Homo sapiens, UniProt P35462); assay: Displacement of [3H]spiperone from human dopamine D3 receptor expressed in CHO cells; format: cell-based
[2] = biological target: T1, 5-hydroxytryptamine receptor 1A (Homo sapiens) (UniProt P08908); assay: Antagonist activity at human 5HT1A receptor expressed in CHO cells assessed as inhibition of [35S]GTPgammaS binding relative to control; format: functional, cell-based
T1 sequence (whole entry): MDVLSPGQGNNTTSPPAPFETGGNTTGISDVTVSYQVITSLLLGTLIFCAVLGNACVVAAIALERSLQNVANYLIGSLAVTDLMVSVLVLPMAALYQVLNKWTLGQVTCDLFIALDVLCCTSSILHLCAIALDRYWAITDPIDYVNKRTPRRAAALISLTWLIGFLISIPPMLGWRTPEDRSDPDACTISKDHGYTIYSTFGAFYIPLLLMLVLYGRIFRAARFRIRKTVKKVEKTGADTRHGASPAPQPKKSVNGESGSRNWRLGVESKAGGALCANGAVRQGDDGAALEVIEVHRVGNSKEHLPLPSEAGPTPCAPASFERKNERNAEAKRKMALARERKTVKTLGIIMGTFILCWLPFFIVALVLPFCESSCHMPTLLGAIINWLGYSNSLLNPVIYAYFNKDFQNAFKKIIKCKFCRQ

Cytochrome P450 2C19 = Cytochrome P450 2C19 (Homo sapiens, UniProt P33261); assay: Inhibition of CYP2C19 in human liver microsomes; format: ADME, Microsome
Cytochrome P450 2C9 = Cytochrome P450 2C9 (Homo sapiens, UniProt P11712); assay: Inhibition of CYP2C9 in human liver microsomes; format: ADME, Microsome
[3] = Cmax in rat at 10 mg/kg, po; format: ADME, organism-based; parameters: dose 10 mg/kg, route oral; conditions: in vivo
[4] = Tmax in rat at 10 mg/kg, po; format: ADME, organism-based; parameters: dose 10 mg/kg, route oral; conditions: in vivo
Rattus norvegicus = assay: Antidepressant like activity in sc dosed rat resident-intruder model assessed as effect on total behavior score administered 30 mins prior to test; format: functional; conditions: read-out: ID50 (the source's name)
[5] = Oral bioavailability in rat at 10 mg/kg; format: ADME, organism-based; conditions: in vivo
Cytochrome P450 2C8 = biological target: T2, Cytochrome P450 2C8 (Homo sapiens, UniProt P10632); assay: Inhibition of CYP2C8 in human liver microsomes; format: ADME, Microsome
T2 sequence (P10632 whole entry): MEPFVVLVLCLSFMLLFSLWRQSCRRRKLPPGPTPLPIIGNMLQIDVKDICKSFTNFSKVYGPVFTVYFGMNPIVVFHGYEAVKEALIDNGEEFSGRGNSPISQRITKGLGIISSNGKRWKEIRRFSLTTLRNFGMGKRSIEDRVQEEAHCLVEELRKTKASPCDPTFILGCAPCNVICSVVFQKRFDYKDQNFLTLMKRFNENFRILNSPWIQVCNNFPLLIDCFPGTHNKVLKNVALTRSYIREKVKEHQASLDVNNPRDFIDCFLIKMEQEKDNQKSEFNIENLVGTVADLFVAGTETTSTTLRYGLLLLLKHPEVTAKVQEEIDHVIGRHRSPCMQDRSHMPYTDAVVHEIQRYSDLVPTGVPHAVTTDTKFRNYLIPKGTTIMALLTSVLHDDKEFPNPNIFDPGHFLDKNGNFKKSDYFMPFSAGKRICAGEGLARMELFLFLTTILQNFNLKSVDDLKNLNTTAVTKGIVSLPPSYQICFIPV

Cytochrome P450 2A6 = biological target: T3, Cytochrome P450 2A6 (Homo sapiens, UniProt P11509); assay: Inhibition of CYP2A6 in human liver microsomes upto 100 uM; format: ADME, Microsome
T3 sequence (P11509 whole entry): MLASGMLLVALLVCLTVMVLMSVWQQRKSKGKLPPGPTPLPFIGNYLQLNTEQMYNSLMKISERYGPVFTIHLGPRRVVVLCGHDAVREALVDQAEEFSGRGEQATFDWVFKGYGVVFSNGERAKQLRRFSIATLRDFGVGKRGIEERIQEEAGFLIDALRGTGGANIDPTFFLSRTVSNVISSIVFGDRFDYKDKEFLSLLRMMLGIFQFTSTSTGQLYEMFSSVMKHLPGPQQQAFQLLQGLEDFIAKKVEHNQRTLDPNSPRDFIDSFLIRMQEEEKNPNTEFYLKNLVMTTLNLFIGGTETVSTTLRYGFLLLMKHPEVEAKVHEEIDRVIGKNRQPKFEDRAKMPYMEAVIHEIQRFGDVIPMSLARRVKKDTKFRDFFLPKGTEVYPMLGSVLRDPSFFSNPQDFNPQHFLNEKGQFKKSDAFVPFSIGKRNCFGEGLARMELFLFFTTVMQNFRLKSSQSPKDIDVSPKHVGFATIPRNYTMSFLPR

[6] = Oral bioavailability in rat at 3 mg/kg; format: ADME, organism-based; conditions: in vivo
D(2) dopamine receptor = D(2) dopamine receptor (Homo sapiens, UniProt P14416); assay: Displacement of [3H]spiperone from human dopamine D2 receptor expressed in CHO cells; format: cell-based
Cytochrome P450 3A4 = Cytochrome P450 3A4 (Homo sapiens, UniProt P08684); assay: Inhibition of CYP3A4 in human liver microsomes; format: ADME, Microsome
Chain of Cytochrome P450 3A4 (P08684 whole entry): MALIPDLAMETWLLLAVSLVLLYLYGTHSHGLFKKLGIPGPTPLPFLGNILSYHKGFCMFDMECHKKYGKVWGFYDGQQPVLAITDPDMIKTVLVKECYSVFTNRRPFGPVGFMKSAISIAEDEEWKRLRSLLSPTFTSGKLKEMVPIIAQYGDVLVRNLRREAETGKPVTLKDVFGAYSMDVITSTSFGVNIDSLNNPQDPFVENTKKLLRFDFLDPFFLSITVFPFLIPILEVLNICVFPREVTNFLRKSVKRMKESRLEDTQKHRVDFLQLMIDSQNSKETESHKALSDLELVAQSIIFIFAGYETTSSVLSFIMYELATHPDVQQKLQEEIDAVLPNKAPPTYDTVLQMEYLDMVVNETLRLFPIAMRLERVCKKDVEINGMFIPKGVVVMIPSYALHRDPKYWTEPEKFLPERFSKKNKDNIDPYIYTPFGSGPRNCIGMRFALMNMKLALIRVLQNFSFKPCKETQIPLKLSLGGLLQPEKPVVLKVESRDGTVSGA

Chain of D(2) dopamine receptor (P14416 whole entry): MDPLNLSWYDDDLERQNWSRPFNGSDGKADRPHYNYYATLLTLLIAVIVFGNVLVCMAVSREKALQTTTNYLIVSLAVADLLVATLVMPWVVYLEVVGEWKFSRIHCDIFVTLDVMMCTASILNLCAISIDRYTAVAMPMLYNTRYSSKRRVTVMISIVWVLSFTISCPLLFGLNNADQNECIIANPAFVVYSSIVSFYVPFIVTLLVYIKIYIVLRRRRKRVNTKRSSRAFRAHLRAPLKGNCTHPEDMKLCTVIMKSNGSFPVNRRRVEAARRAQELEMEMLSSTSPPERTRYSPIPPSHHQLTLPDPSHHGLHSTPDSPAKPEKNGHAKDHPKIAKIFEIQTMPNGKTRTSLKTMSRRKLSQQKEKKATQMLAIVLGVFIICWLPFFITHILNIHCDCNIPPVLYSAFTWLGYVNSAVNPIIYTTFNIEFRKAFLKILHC
Chain of Cytochrome P450 2C19 (P33261 whole entry): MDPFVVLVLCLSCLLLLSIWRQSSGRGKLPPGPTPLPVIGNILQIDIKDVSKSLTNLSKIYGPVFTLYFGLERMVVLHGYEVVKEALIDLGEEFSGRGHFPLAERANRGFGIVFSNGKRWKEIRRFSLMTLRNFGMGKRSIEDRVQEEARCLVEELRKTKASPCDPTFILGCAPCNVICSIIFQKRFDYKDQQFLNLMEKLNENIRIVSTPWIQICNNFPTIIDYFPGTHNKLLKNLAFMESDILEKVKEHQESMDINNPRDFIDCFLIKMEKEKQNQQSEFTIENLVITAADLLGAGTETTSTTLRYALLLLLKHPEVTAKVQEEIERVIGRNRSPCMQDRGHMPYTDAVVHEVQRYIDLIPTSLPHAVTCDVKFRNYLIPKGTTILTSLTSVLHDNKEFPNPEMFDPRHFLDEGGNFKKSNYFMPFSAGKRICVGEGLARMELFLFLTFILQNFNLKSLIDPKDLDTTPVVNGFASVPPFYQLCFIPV
Chain of Cytochrome P450 2C9 (P11712 whole entry): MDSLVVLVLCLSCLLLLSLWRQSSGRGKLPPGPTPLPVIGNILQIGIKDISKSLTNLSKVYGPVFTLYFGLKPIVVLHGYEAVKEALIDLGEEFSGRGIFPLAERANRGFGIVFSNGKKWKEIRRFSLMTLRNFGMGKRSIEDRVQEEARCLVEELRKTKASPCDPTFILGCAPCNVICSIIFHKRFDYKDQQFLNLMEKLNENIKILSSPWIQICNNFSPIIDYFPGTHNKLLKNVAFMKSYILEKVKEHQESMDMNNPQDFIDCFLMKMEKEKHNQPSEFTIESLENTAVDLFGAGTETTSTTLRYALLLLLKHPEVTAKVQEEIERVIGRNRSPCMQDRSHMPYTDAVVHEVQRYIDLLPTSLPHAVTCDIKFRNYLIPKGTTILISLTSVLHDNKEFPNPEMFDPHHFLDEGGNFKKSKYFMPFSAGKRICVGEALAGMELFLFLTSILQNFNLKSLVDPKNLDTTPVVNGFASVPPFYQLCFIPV
Chain of D(3) dopamine receptor (P35462 whole entry): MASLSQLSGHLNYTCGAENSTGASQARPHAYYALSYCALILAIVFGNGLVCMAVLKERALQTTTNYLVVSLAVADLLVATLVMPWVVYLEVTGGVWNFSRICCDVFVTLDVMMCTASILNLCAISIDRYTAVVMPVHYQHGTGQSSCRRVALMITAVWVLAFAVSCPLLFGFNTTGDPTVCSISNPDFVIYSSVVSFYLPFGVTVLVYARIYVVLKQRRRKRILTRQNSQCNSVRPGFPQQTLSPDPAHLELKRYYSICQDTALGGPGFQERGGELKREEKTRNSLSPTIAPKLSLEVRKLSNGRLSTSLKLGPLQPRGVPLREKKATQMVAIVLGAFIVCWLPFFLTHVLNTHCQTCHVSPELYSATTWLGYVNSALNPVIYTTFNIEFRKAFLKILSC

Cc1ccc2c3c(ccc2n1)OC[C@H](CN1CCN(c2ccc4cc(C#N)ccc4n2)CC1)O3
AUC [1]: 2320 ng·h/mL
pKi (D(3) dopamine receptor): 5.88
Imax [2]: 88.6%
pIC50 (Cytochrome P450 2C19): 4.01
pIC50 (Cytochrome P450 2C9): 3.45
Cmax [3]: 815 ng/mL
Tmax [4]: 1 h
ED50 (Rattus norvegicus): > 30 mg/kg
bioavailability [5]: 36%
pIC50 (Cytochrome P450 2C8): 4.54
inhibition (INH) (Cytochrome P450 2A6): Not Active
bioavailability [6]: 61%
pKi (D(2) dopamine receptor): 5.88
pIC50 (Cytochrome P450 3A4): 5.00

Reference: ChEMBL document CHEMBL1151947, “Synthesis, potency, and in vivo evaluation of 2-piperazin-1-ylquinoline analogues as dual serotonin reuptake inhibitors and serotonin 5-HT1A receptor antagonists” (J Med Chem, 2009)
